Test results from patent US10364256B2 (GlaxoSmithKline Intellectual Property Development Limited, priority 2015, dated 2019).

Assays:
[1] = biological target: T1, full length Keap1 protein / full length NRF2 protein (Homo sapiens, UniProt Q14145); assay: NRF2-Keap1 TR-FRET Low Protein Assay; format: binding; settings: 1.25 nM Keap1 FlagHis and 2.5 nM biotin-NRF2 added
T1 construct: full length NRF2 protein and full length Keap1 protein (Keap1 exists a dimer) are used; His
Excerpt: NRF2-Keap1 TR-FRET Low Protein Assay In the NRF2-Keap1 TR-FRET (time-resolved fluorescence resonance energy transfer) low protein assay, full length NRF2 protein and full length Keap1 protein (Keap1 exists a dimer) are used. The assay detects a compound's ability to displace the binding of Keap1 […] with biotinylated Avi-NRF2 protein. Biotin-NRF2 binds to streptavidin-europium (a component of the detection mix) and Keap1 […] is recognized by anti-Flag APC (allophycocyanin) antibody (also a component of the detection mix). If binding occurs between the two proteins, there will be an energy transfer from the Eu+3 (donor) at 615 nm to the APC (acceptor) at 665 nm. A potential NRF2 inhibitor will cause a reduction in the TR-FRET signal by interfering with the binding of Keap1 to NRF2. Ten nanoliters of 100× compound dose response curves (serial 3-fold dilutions) in DMSO are stamped using an Echo liquid handling system (Labcyte) into 384-well, low volume, black assay plates (Greiner, #784076), with DMSO in columns 6 and 18. An additional 90 nl DMSO is added to each well, to bring the total volume to 100 nl per well. The top concentration of compound is located in columns 1 and 13, with the serial dilutions going across the row. All reagents are diluted in assay buffer (50 mM Tris, pH 8.0, 5 mM MgCl2, 100 mM NaCl, 0.005% BSA, 1 mM DTT, and 2 mM CHAPS. The BSA, DTT, and CHAPS are added to the assay buffer on the day of assay. […] Wells in column 18 receive 5 ul of assay buffer instead. Plates are centrifuged at 500 rpm for 1 minute, covered with a plate lid, and incubated at 37° C. for 2.25 hours. Plates are then removed from the incubator and allowed to cool to RT for 15 minutes. Five microliters of 2.5 nM biotin-NRF2 protein is then added to all wells of the plates and the plates are spun at 500 rpm for 1 minute, followed by incubating at 4° C. for 1.25 hours. The plates are then allowed to warm to RT for 15 minutes, followed by the addition of 10 ul of detection mix (1 nM Streptavidin Eu+W1024 and 5 ug/ml mouse anti-DYKDDDDK IgG conjugated to SureLight APC antibody; both from Columbia Biosciences) to all wells. Plates are spun at 500 rpm for 1 minute, incubated for 1 hour at RT, and read on an Envision plate reader using a 320 nm excitation filter and 615 nm and 665 nm emission filters. […] Data analysis is handled using the software package Abase XE (Surrey, United Kingdom). […] For calculation of pIC50s, Abase XE uses a four parameter equation. pIC50 is the negative log of the IC50.

[2] = biological target: T2, Keap1 Kelch domain (321-609) / TAMRA-labeled 16mer NRF2 peptide (ETGE motif) (Homo sapiens, UniProt Q14145); assay: NRF2-Keap1 FP Assay (Keap1 Kelch fluorescence polarization); format: binding; settings: 20 nM Keap1 (321-609), 8 nM Tamra labeled peptide
T2 construct: the Kelch domain (321-609) of Keap1 is used
T2 sequence (Q14145 321-609): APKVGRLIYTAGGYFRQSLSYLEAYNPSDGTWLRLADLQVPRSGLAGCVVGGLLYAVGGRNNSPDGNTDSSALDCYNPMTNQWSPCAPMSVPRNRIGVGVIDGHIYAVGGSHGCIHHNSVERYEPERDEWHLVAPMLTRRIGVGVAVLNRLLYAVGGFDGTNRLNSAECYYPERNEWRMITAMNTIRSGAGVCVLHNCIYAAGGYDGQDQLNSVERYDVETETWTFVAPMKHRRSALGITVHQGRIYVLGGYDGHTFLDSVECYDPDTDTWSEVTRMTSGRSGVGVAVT
Excerpt: One model for the NRF2-Keap1 interaction is through two binding sites in the Neh2 domain on NRF2. The two sites are referred to as the DLG binding motif (latch domain, uM affinity) and the ETGE binding motif (hinge domain, nM affinity). The Keap1 protein consists of an N-terminal region (NTR), a broad complex, tramtrack, and brick a′ brac domain (BTB), an intervening region (IVR), a double glycine repeat domain (DGR or Kelch), and a C-terminal region. The DLG and ETGE motifs of NRF2's Neh2 domain bind to the Kelch domain of Keap1 at different affinities. In the Keap1 Kelch fluorescence polarization (FP) assay, a TAMRA-labeled 16mer peptide (AFFAQLQLDEETGEFL) containing the ETGE motif of NRF2 and the Kelch domain (321-609) of Keap1 is used. The assay determines if a compound interferes with the binding between Keap1 […] and the TAMRA-labeled peptide. Binding of TAMRA-labeled NRF2 peptide to Keap1 (321-609) results in a high FP signal. If a compound interferes with the binding between the peptide and the protein, it will cause the assay signal to decrease. Thus, assay signal is inversely proportional to binding inhibition.
100 nl of 100× compound dose response curves (serial 3-fold dilutions) in DMSO are stamped using an Echo liquid handling system (Labcyte) into 384-well low volume black assay plates (Greiner, #784076), with DMSO in columns 6 and 18. The top concentration of compound is located in columns 1 and 13. Keap1 (321-609) is diluted to 40 nM (2×) in 1× assay buffer (50 mM Tris, pH 8.0, 100 mM NaCl, 5 mM MgCl2, 1 mM DTT, 2 mM CHAPS, and 0.005% BSA) and 5 ul is added using a Multidrop Combi (Thermo Electron Corporation) equipped with a metal tip dispenser to all wells of the compound plate, except column 18. Column 18 receives only 5 ul of assay buffer. Immediately, 5 uL of 16 nM (2×) of Tamra labeled peptide (AFFAQLQLDEETGEFL, 21st Century Biochemicals) is added to all wells of the plate. The plates are spun at 500 rpm for 1 min, incubated for 1 hr at room temperature, and read on an Analyst GT (Molecular Devices) equipped with excitation (530/25 nm) and emission (580/10 nm) filters designed for Tamra probes. A 561 nm dichroic mirror is also used in the Analyst. The final assay concentrations of Keap1 (321-609) and Tamra labeled peptide are 20 nM and 8 nM, respectively. Fluorescence measurements, represented as mP, are used in the transformation of the data. Compound activity is calculated based on percent inhibition, normalized against controls in the assay (Control 1 contains the Tamra peptide and Keap1 (321-609) together (0% response) and control 2 contains the Tamra peptide alone (100% response)). Data analysis is handled using the software package Abase XE (Surrey, United Kingdom. The % inhibition values are calculated by the equation: 100−(100*((compound response−average control 2)/(average control 1−average control2))). For calculation of pIC50s, Abase XE uses a four parameter equation. pIC50 is the negative log of the IC50.

[3] = tested on: NQO1 specific enzyme activity in BEAS-2B cells (marker for NRF2 activation); assay: BEAS-2B NQO1 MTT Assay; format: cell-based; settings: Homo sapiens, compound incubated 48 hours, read-out: EC50 (NQO1 specific enzyme activity induction)
Excerpt: BEAS-2B NQO1 MTT Assay NAD(P)H:quinone oxidoreductase 1 (NQO1), also called DT diaphorase, is a homodimeric FAD-containing enzyme that catalyzes obligatory NAD(P)H-dependent two-electron reductions of quinones and protects cells against the toxic and neoplastic effects of free radicals and reactive oxygen species arising from one-electron reductions. The transcription of NQO1 is finely regulated by NRF2, and thus NQO1 activity is a good marker for NRF2 activation. On day one, frozen BEAS-2B cells (ATCC) are thawed in a water bath, counted, and re-suspended at a concentration of 250,000 cells/mL. Fifty microliters of cells are plated in 384 well black clear-bottomed plates. Plates are incubated at 37° C., 5% CO2 overnight. On day two, plates are centrifuged and 50 nL of compound or controls are added to the cells. Plates are then incubated at 37° C., 5% CO2 for 48 hours. On day four, medium is aspirated from the plate and crude cell lysates are made by adding 13 uL of 1× Cell Signaling Technologies lysis buffer with 1 Complete, Mini, EDTA-free Protease Inhibitor Tablet (Roche) for each 10 mL of lysis buffer. After lysis plates are incubated for 20 minutes at room temperature. Two microliters of lysate are removed for use in Cell Titer Glo assay (Promega) and MTT cocktail is prepared (Prochaska et. al. 1998) for measurement of NQO1 activity. Fifty microliters of MTT cocktail is added to each well, plate is centrifuged, and analyzed on an Envision plate reader (Perkin Elmer) using Absorbance 570 nm label for 30 minutes. Product formation is measured kinetically and the pEC50 of NQO1 specific activity induction is calculated by plotting the change in absorbance (Delta OD/min) versus the log of compound concentration followed by 3-parameter fitting. pEC50 is the negative log of the EC50.

T1 sequence (Q14145 whole entry): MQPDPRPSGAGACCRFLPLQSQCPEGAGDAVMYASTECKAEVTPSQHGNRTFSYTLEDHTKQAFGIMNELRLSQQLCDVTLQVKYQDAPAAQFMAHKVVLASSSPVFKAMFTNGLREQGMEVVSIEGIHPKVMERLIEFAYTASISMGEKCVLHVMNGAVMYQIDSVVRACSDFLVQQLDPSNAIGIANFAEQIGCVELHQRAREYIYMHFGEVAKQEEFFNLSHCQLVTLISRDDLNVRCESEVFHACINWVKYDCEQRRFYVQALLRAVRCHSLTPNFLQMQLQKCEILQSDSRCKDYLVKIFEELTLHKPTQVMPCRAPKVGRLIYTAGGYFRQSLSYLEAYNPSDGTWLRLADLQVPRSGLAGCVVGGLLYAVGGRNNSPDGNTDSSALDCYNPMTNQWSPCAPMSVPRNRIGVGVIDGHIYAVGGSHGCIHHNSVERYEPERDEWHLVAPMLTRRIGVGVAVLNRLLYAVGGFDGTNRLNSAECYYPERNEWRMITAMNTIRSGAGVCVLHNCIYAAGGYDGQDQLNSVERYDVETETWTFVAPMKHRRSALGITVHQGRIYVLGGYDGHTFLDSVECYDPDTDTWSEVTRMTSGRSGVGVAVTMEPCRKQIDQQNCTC

| SMILES | IC50 [1] | IC50 [2] | EC50 [3] |
| --- | --- | --- | --- |
| CC(=O)OCOC(=O)c1cnn(-c2cccc(-c3cccc(O[C@@H](C)C4CCCCC4)c3)c2)c1[C@@H]1C[C@H]1c1cn(C)nn1 [Example 110, Acetoxymethyl 1-(3′-((S)-1-cyclohexylethoxy)-[1,1′-biphenyl]-3-yl)-5-((1R,2R)-2-(1-methyl-1H-1,2,3-triazol-4-yl)cyclopropyl)-1H-pyrazole-4-carboxylate] | 10 to 100 nM | 100 to 1000 nM | < 1 nM |
| C[C@H](Oc1cccc(-c2cccc(-n3ncc(C(=O)O)c3[C@@H]3C[C@H]3c3cn(C4CN(C(=O)OC(C)(C)C)C4)nn3)c2)c1)C1CCCCC1 (racemic) [Example 80, 5-(trans-2-(1-(1-(tert-Butoxycarbonyl)azetidin-3-yl)-1H-1,2,3-triazol-4-yl)cyclopropyl)-1-(3′-((S)-1-cyclohexylethoxy)-[1,1′-biphenyl]-3-yl)-1H-pyrazole-4-carboxylic acid] | 10 to 100 nM | 100 to 1000 nM | 10 to 100 nM |
| C[C@H](Oc1cccc(-c2cccc(-n3ncc(C(=O)O)c3[C@@H]3C[C@H]3c3cn(Cc4ccccc4)nn3)c2)c1)C1CCCCC1 (racemic) [Example 87, 5-(trans-2-(1-Benzyl-1H-1,2,3-triazol-4-yl)cyclopropyl)-1-(3′-((S)-1-cyclohexylethoxy)-[1,1′-biphenyl]-3-yl)-1H-pyrazole-4-carboxylic Acid] | 100 to 1000 nM | 100 to 1000 nM | 10 to 100 nM |
| C[C@@H]1Cc2ccccc2S(=O)(=O)N(Cc2cccc(-c3cccc(-n4ncc(C(=O)O)c4[C@@H]4C[C@H]4c4cn(C)nn4)c3)c2)C1 [Example 130, 1-(3′-(((R)-4-Methyl-1,1-dioxido-4,5-dihydrobenzo[f][1,2]thiazepin-2(3H)-yl)methyl)-[1,1′-biphenyl]-3-yl)-5-((1R,2R)-2-(1-methyl-1H-1,2,3-triazol-4-yl)cyclopropyl)-1H-pyrazole-4-carboxylic Acid] | 10 to 100 nM | 10 to 100 nM | 100 to 1000 nM |
| CC(Oc1cccc(-c2cccc(-n3ncc(C(=O)O)c3[C@H]3C[C@@H]3c3cn(C(C)C)nn3)c2)c1)C1CCCCC1 (mixture of isomers) [Example 195, 1-(3′-(1-cyclohexylethoxy)-[1,1′-biphenyl]-3-yl)-5-((1,2-trans)-2-(1-isopropyl-1H-1,2,3-triazol-4-yl)cyclopropyl)-1H-pyrazole-4-carboxylic acid] | 10 to 100 nM | 100 to 1000 nM | 10 to 100 nM |
| CC[C@H]1c2ccccc2OCCN1Cc1cccc(-c2cccc(-n3ncc(C(=O)O)c3[C@@H]3C[C@H]3c3cn(C)nn3)c2)c1 (single isomer, unassigned; isomer 2) [Example 121] | < 10 nM | 1 to 10 nM | 10 to 100 nM |
| C[C@H](Oc1cccc(-c2cccc(-n3ncc(C(=O)O)c3[C@@H]3C[C@H]3c3cn(CC(F)(F)F)nn3)c2)c1)C1CCCCC1 [Example 97, 1-(3′-((S)-1-Cyclohexylethoxy)-[1,1′-biphenyl]-3-yl)-5-((1R,2R)-2-(1-(2,2,2-trifluoroethyl)-1H-1,2,3-triazol-4-yl)cyclopropyl)-1H-pyrazole-4-carboxylic acid] | 10 to 100 nM | 10 to 100 nM | 1 to 10 nM |
| C[C@H](Oc1cccc(-c2cccc(-n3ncc(C(=O)OC4CCOC4=O)c3[C@@H]3C[C@H]3c3cn(C)nn3)c2)c1)C1CCCCC1 (stereo partly drawn) [Example 106, 2-Oxotetrahydrofuran-3-yl 1-(3′-((S)-1-cyclohexylethoxy)-[1,1′-biphenyl]-3-yl)-5-((1R,2R)-2-(1-methyl-1H-1,2,3-triazol-4-yl)cyclopropyl)-1H-pyrazole-4-carboxylate] | 1000 to 10000 nM | > 10000 nM | 100 to 1000 nM |
